Results on 14 compounds are retold here after patent publication US20240181111A1, “SYSTEMS AND METHODS FOR AIR SANITIZATION USING FORMULAS CONTAINING AN ORGANIC ACID” (The Clorox Company, priority 2022, published 2024).

Values joined by “and” are separate entries in the source; they are usually repeats but may differ in a detail not shown here. Equal values may be shown once. Read-outs that look alike come from different tables or passages of the source.

The conditions of data set [1]: cited from earlier work.
For data set [2] the following is noted: cited from earlier work. The source holds these as a separate data set.
The nature of data set [3]: Candidate screening for antimicrobial synergy with lactic acid. The protocol: In addition to tested organic acids, a number of glycols, alcohols, diols and other candidates were also screened, for pairing with the organic acid. Viable candidates may also have: 1) a vapor pressure characteristics as noted above; 2) be soluble in water; and/or 3) have an ECHA Inhalation Threshold for the General Population of greater than 10 mg/m^3.
As such, while glycols may optionally be present, in an embodiment, the present formulations may be void, or substantially void of such glycol components (particularly propylene glycol and glycols including an ether group). The same may be said for various other candidate materials noted in Table 2.

For data set [4] the following is noted: cited from earlier work. This is another data set of the same source.
A short description of data set [5]: Acid dissociation of lactic acid. In kind it is physicochemical. Conditions: at a pH of 2.2. From the text: In another aspect, the pH of the antimicrobial formulation is kept low. A low pH can be important for lactic acid or other acids to achieve air sanitization efficacy. […].
The mark [6] stands for this setting: Table 2 candidates for pairing with the organic acid.
Where [7] appears, read: Table 1 organic acids, standard conditions (e.g., 20° C. and 1 atmosphere).
Where [8] appears, read: organic acids, long term inhalation.

In the case of `CCC(O)CO` (stereo not shown) [1,2-butanediol], in data set [1] (setting [6]), the “Vapor Pressure” value is 10 Pa. Moreover, in data set [2] (Table 2 candidates), the “ECHA Inhalation Threshold for General Population” value (shortened to “ECHA Inhalation Threshold”) is “No hazard identified”.

With `CCCCC(O)CO` (stereo not shown) [1,2-hexanediol (HDO), 1,2-hexanediol], the “antimicrobial synergy with lactic acid” value in data set [3] is on record as “synergy with lactic acid”.

As for `CC(O)CCO` (stereo not shown) [1,3-butanediol], the “Vapor Pressure” value in data set [1] (setting [6]) was 26 Pa.

Take `CCCCCCCCCCCCO` [1-dodecanol]: the “ECHA Inhalation Threshold” value in data set [2] (Table 2 candidates) is 77 mg/m^3.

Consider `O=C(O)CCO` [3-hydroxypropionic acid], for which the “Solubility in water (g of compound in 100 g of water at ~20° C.)” value (“Solubility in water” for short) in data set [4] is on record as “Very soluble^1”.

As to `CC(=O)O` [acetic acid], the “Vapor Pressure” value in data set [1] (setting [7]) is listed as 2080^3 Pa. Also, the “ECHA local effects DNEL” value in data set [2] (local effects) is 25 mg/m^3)^1.

In the case of `O=C(O)CCCCC(=O)O` [adipic acid], in data set [1] (setting [7]), the “Vapor Pressure” value is on record as 9.70^1 Pa.

As to `O=C(O)c1ccccc1` [benzoic acid], the “Vapor Pressure” value in data set [1] (setting [7]) is listed as 0.11^1 Pa. The “ECHA Inhalation Threshold” value in data set [2] (setting [8]) was 1.5^3 mg/m^3.

For `O=C(O)CO` [glycolic acid], in data set [2] (setting [8]), the “ECHA Inhalation Threshold” value is 2.6 mg/m^3 and 2.6^3 mg/m^3.

Regarding `CCCCCCC(=O)O` [heptanoic acid], the “Solubility in water” value in data set [4] is 0.2^2 g of compound in 100 g of water.

With `CCCCCC(=O)O` [hexanoic acid], the “Vapor Pressure” value in data set [1] (setting [7]) is 5.80^1 Pa. For the same compound, the “ECHA Inhalation Threshold” value in data set [2] (setting [8]) is recorded as 4.35^3 mg/m^3.

As to `CC(O)C(=O)O` (stereo not shown) [lactic acid], the “fraction of lactic acid in the acidic form” value in data set [5] was “at least 95%”.

Take `O=C(O)CC(=O)O` [malonic acid]: the “ECHA Inhalation Threshold” value in data set [2] (setting [8]) is recorded as 1.04^3 mg/m^3.

Turning to `CC(=O)C(=O)O` [pyruvic acid], the “Solubility in water” value in data set [4] is reported as 100^1 g of compound in 100 g of water. In addition, the solubility result in data set [4] (standard conditions (room temperature and 1 atm)) was “about 100 g/100 g water”.
